In patent US20220306617A1, “SUBSTITUTED 1,3-PHENYL HETEROARYL DERIVATIVES AND THEIR USE IN THE TREATMENT OF DISEASE” (NOVARTIS AG, priority 2019, published 2022):
Counter-ions that a name gives are not always drawn.

Target: T1, abc isoform of human TMEM16A channel expressed in CHO cells (Homo sapiens, UniProt Q5XXA6, DEL476-501)
T1 construct: expressed in transfected cells; host or cells: CHO cells, doxycycline-inducible expression under Blasticidin/Zeocin selection
T1 sequence (Q5XXA6 with tags, fused parts or gaps isoform Q5XXA6-5 DEL539-564): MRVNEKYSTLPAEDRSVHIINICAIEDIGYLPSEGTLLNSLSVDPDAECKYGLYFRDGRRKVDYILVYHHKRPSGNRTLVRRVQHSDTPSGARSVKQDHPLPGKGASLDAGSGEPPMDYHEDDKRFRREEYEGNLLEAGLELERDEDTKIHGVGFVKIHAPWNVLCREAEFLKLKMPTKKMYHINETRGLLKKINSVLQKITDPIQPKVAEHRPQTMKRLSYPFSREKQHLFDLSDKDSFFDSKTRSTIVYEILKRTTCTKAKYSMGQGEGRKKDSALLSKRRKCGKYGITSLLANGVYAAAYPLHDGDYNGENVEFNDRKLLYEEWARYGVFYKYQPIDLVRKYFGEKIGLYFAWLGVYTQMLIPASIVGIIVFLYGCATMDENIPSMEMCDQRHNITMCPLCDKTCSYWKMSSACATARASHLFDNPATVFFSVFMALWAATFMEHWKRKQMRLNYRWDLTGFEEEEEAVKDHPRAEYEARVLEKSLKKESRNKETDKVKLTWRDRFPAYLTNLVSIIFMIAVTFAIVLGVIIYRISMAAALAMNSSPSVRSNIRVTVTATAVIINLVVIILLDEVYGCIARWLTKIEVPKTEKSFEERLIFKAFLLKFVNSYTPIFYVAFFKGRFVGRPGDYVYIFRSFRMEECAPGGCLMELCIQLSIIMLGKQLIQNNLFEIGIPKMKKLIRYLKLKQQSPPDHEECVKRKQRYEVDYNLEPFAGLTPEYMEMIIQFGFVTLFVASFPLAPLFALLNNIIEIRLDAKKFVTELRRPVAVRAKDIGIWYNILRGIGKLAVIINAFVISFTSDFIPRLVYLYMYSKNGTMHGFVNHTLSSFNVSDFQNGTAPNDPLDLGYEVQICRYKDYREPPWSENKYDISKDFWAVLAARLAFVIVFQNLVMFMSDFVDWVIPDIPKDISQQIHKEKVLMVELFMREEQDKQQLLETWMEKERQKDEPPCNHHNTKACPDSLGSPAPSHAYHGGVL
Assay: Automated patch clamping (QPatch) assay to measure TMEM16A activity in whole-cell
Assay type: cell-based
Conditions: for EC50: CHO cells expressing human TMEM16A (abc), whole-cell automated patch clamp, Hill fit, read-out: TMEM16A QPATCH assay EC50 V3 EC50; for Emax: CHO, maximum current at highest dose relative to reference potentiator at maximal concentration (upper limit) and vehicle (lower limit), read-out: TMEM16A QPATCH assay EC50 V3 Assay Window (% TMEM16A max activation)
Experimental: Automated Patch Clamping Assay to Measure TMEM16A Activity in Whole-Cell
Chinese hamster ovary cells (CHO) cells expressing abc isoform of human TMEM16A channel (Ref) were grown in vented cell-culture flasks (Corning) containing cell culture medium (1×F-12 Ham, 10% FBS, 1% Penicillin-streptomycin, 5 μg/mL Blasticidin S HCl, 400 μg/mL Zeocin), maintained at 37° C. in an incubator with 5% C02, 95% 02 and 100% humidity. The cells were passaged every 2-3 days at 80-90% confluence by aspirating the cell culture medium, washing twice with 10 mL D-PBS then incubating with 4 mL Trypsin-EDTA for no longer than 5 minutes. Trypsin was neutralized with the addition of 32 mL growth medium to the cell suspension, the cells were counted using a viable-cell counter (Vi-CELL; Beckmann-Coulter) and new flasks were seeded at a cell density of 0.01, 0.02, or 0.05×10^6 cells per cm2 for 3, 2, or 1 day(s) growth, respectively. Cell suspension was diluted in the new 175 cm2 flask with 50 mL of growth medium. Doxycycline was used to induce the expression of TMEM16A channel protein and was added directly to the culture flask 18-24 hours in advance of assay at a final concentration of 1 μg/mL. Induced cells were washed with D-PBS and detached from their culture flasks by adding 10 mL of Detachin and incubating for 10 minutes. Once detached, 5 mL of QPatch assay medium (1×CHO-S-SFM II (Sigma), 25 mM HEPES) was added and the resultant cell suspension counted using the Vi-CELL viable cell counter. The optimal cell density for this QPatch assay is 2-5×1 06 cells/mL; re-adjusted as necessary with QPatch assay medium.
The ion channel activity of TMEM16A (abc) expressed in CHO cells was assed using an automated patch clamp system (Qpatch, Sophion). These systems use planar patch-clamp technology to enable high-resistance, continuous whole-cell recordings from multiple cells in parallel, whilst maintaining each individual cell as an isolated experiment. First, each well was primed with intracellular and extracellular solutions described below. Cells were spun down, washed and then resuspended using extracellular solution. Intracellular solution: 130 mM N-methyl-D-glucamine, 10 mM EGTA, 20 mM CaCl2, 1 mM MgCl2, 10 mM HEPES 10, 10 mM BAPTA, 99 mM Sucrose, 2 mM Mg-ATP, pH 7.3, 320 mOsm Extracellular solution: 130 mM N-methyl-D-glucamine, 10 mM EGTA, 20 mM CaCl2, 1 mM MgCl2, 10 mM HEPES 10, 10 mM BAPTA, 99 mM Sucrose, 2 mM Mg-ATP, pH 7.3, 320 mOsm. Resuspended cells were then added to each well and suction was applied from the intracellular side in order to position a cell on the chip aperture, form a high resistance (GO) seal and achieve a whole-cell recording configuration. Following successful whole cell access, cell membranes were maintained at a voltage of −70 mV until the voltage protocol is applied. From this voltage, membranes were depolarized to +70 mV for 1500 ms, and then hyperpolarized to […] before being depolarized again from −90 to +70 mV in a continuous ramp waveform. At the end of the ramp, the membrane voltage is stepped back to −70 mV until the next waveform was applied. Compounds were dissolved at 10 mM in 100% DMSO and then diluted into extracellular solution (0.3% DMSO final) to the desired final concentration. The assay lower and upper limit were defined as follow, average amplitude (nA) of the last 3 sweeps in the vehicle addition of each cell was considered the basal current (lower limit); the average maximum current response in 3 cells for a reference potentiator at maximal concentration (upper limit). Current values for each compound concentration were then plotted against […]. EC50 curves are fitted to concentration-response data using curve-fitting functions (Hill fit) within the QPatch software. Curve fitting is constrained between the lowest concentration (vehicle-only addition) and the highest current value measured within the concentration range. […]

EC50 | Emax | Structure (SMILES)
470 nM | 77% | COC(=O)[C@H](CC1CCCCC1)NC(=O)c1cnc(-c2cccc(-c3nnc(C(=O)N[C@@H](C)C4CC4)[nH]3)c2)o1 [Example 12.17, (S)-Methyl 3-Cyclohexyl-2-(2-(3-(5-(((S)-1-Cyclopropylethyl)Carbamoyl)-4H-1,2,4-Triazol-3-Yl)Phenyl)Oxazole-5-Carboxamido)Propanoate]
250 nM | 73% | C[C@H](NC(=O)c1cnc(-c2cccc(-c3cc(C(=O)N[C@@H](C)C4CC4)n(CC(C)(C)O)n3)c2)o1)C1CC1 [Example 6.3, N-((S)-1-Cyclopropylethyl)-2-(3-(5-(((S)-1-Cyclopropylethyl)Carbamoyl)-1-(2-Hydroxy-2-Methylpropyl)-1H-Pyrazol-3-Yl)Phenyl)Oxazole-5-Carboxamide]
120 nM | 69% | CCC(CC)NC(=O)c1cnc(-c2cccc(-c3cc(C(=O)N[C@@H](C)C(C)(C)C)n[nH]3)c2)o1 [Example 3.35, (S)-2-(3-(3-((3,3-Dimethylbutan-2-Yl)Carbamoyl)-1H-Pyrazol-5-Yl)Phenyl)-N-(Pentan-3-Yl)Oxazole-5-Carboxamide Trifluoroacetate]
560 nM | 82% | CCC(CC)NC(=O)c1cc(-c2cccc(-c3ncc(C(=O)Nc4cc(C)cc(C)c4)o3)c2)[nH]n1 [Example 1.3]
910 nM | 103% | COC(=O)[C@H](CC1CCCCC1)NC(=O)c1cnc(-c2cccc(-c3cc(C(=O)NC(C4CC4)C4CC4)n[nH]3)c2)o1 [Example 1.4, (S)-Methyl 3-Cyclohexyl-2-(2-(3-(3-((Dicyclopropylmethyl)Carbamoyl)-1H-Pyrazol-5-Yl)Phenyl)Oxazole-5-Carboxamido)Propanoate]
130 nM | 172% | CCOC(=O)[C@@H](NC(=O)c1cnc(-c2cccc(-c3cc(C(=O)NC(C4CC4)C4CC4)n(CCO)n3)c2)o1)C(C)C [Example 4.4, (S)-Ethyl 2-(2-(3-(5-((Dicyclopropylmethyl)Carbamoyl)-1-(2-Hydroxyethyl)-1 H-Pyrazol-3-Yl)Phenyl)Oxazole-5-Carboxamido)-3-Methylbutanoate]
550 nM | 81% | CCC(CC)NC(=O)c1cnc(-c2cccc(-c3cc(C(=O)NCc4ccc(F)cc4)n[nH]3)c2)o1 [Example 3.45, 2-(3-(3-((4-Fluorobenzyl)Carbamoyl)-1 H-Pyrazol-5-Yl)Phenyl)-N-(Pentan-3-yl)Oxazole-5-Carboxamide]
1000 nM | 61% | CCC(CC)NC(=O)c1cnc(-c2cccc(-c3nc(C(=O)NC(CC)CC)n(CCN(C)C)n3)c2)o1 [Example 15.4, 2-(3-(1-(2-(Dimethylamino)Ethyl)-5-(Pentan-3-Ylcarbamoyl)-1H-1,2,4-Triazol-3-Yl)Phenyl)-N-(Pentan-3-Yl)Oxazole-5-Carboxamide]
170 nM | 72% | CCC(CC)NC(=O)c1cnc(-c2cccc(-c3cc(C(=O)N[C@@H](C)C4CCCCC4)n[nH]3)c2)o1 [Example 3.49, (S)-2-(3-(3-((1-Cyclohexylethyl)Carbamoyl)-1H-Pyrazol-5-Yl)Phenyl)-N-(Pentan-3-Yl)Oxazole-5-Carboxamide]
50 nM | 131% | CCC(CC)NC(=O)c1cnc(-c2cccc(-c3cc(C(=O)N[C@@H](C)C4CC4)n(C)n3)c2)o1 [Example 6.2, (S)-2-(3-(5-((1-Cyclopropylethyl)Carbamoyl)-1-Methyl-1H-Pyrazol-3-Yl)Phenyl)-N-(Pentan-3-Yl)Oxazole-5-Carboxamide]
870 nM | 62% | CCC(CC)NC(=O)c1cc(-c2cccc(-c3ncc(C(=O)Nc4ccon4)o3)c2)[nH]n1 [Example 1.30, N-(Isoxazol-3-Yl)-2-(3-(3-(Pentan-3-Ylcarbamoyl)-1 H-Pyrazol-5-yl)Phenyl)Oxazole-5-Carboxamide]
130 nM | 79% | CCC(CC)NC(=O)c1cnc(-c2cccc(-c3cc(C(=O)NCCSC(C)(C)C)n[nH]3)c2)o1 [Example 3.23, 2-(3-(3-((2-(Tert-Butylthio)Ethyl)Carbamoyl)-1H-Pyrazol-5-Yl)Phenyl)-N-(Pentan-3-Yl)Oxazole-5-Carboxamide]
370 nM | 97% | CCOC(=O)[C@@H](NC(=O)c1nnc(-c2cccc(-c3ncc(C(=O)N[C@@H](C)C4CC4)o3)c2)[nH]1)C(C)C [Example 13.6, (S)-Ethyl 2-(5-(3-(5-(((S)-1-Cyclopropylethyl)Carbamoyl)Oxazol-2-Yl)Phenyl)-4H-1,2,4-Triazole-3-Carboxamido)-3-Methylbutanoate]
290 nM | 140% | C[C@H](NC(=O)c1cnc(-c2cccc(-c3nc(C(=O)N[C@@H](C)C4CC4)n(CCCO)n3)c2)o1)C1CC1 [Example 16.2, N-((S)-1-Cyclopropylethyl)-2-(3-(5-(((S)-1-Cyclopropylethyl)Carbamoyl)-1-(3-Hydroxypropyl)-1H-1,2,4-Triazol-3-Yl)Phenyl)Oxazole-5-Carboxamide]
160 nM | 93% | CCC(CC)NC(=O)c1cc(-c2cccc(-c3ncc(C(=O)N[C@H](C)C4CC4)o3)c2)[nH]n1 [Example 1.40, (R)-N-(1-Cyclopropylethyl)-2-(3-(5-(Pentan-3-Ylcarbamoyl)-1H-Pyrazol-3-yl)Phenyl)Oxazole-5-Carboxamide]
390 nM | 72% | C[C@H](NC(=O)c1nnc(-c2cccc(-c3ncc(C(=O)NC4(C5CC5)CC4)o3)c2)[nH]1)C1CC1 [Example 12.15]
50 nM | 112% | CCOC(=O)[C@@H](NC(=O)c1cnc(-c2cccc(-c3nnc(C(=O)N[C@@H](C)C4CC4)[nH]3)c2)o1)C(C)C [Example 12.2, (S)-Ethyl 2-(2-(3-(5-(((S)-1-Cyclopropylethyl)Carbamoyl)-4H-1,2,4-Triazol-3-Yl)Phenyl)Oxazole-5-Carboxamido)-3-Methylbutanoate]
